Earlier results as cited in patent US7850997B2, “Dietary compositions and methods of enhancing lean body mass and exercise performance” (priority 2007, dated 2010).

Key:
[1] = after arginine 6 g/day for 10 days; 7 healthy males
[2] = 6 g oral L-arginine for 3 days vs placebo; 25 patients with stable coronary artery disease
[3] = compared with placebo; patients
[4] = oral arginine 0.5 g/10 kg for one week, versus placebo; primary or precapillary secondary pulmonary hypertension
[5] = oral L-arginine 6 g for 3 days; 22 patients with stable angina pectoris and healed myocardial infarction

For `N=C(N)NCCCC(N)C(=O)O` (stereo not shown) [arginine, 2-amino-5-guanidinovaleric acid], the “flow-mediated vasodilation (FMV) after 4 and 6 h after oral fat load” value [1] is given as “normalized”, the “flow-mediated vasodilation (FMV) at 2 h after oral fat load” value [1] is given as “significantly decreased” and the exercise duration [2] is given as “significantly increased”. The “forearm blood flow during forearm exercise” value [3] was “significantly increased”, the “mean pulmonary arterial pressure” value [4] was “significantly decreased” and the pulmonary vascular resistance [4] was “significantly decreased”. The exercise capacity [5] was “increased”.
